Measured values taken from patent publication US20080221074A1, “Drug Screen and Treatment Method” (priority 2006, published 2008).
“Also recorded” adds a separate entry of the source.

Columns and labels:
[1] = test system: glucose intolerance in DIO mice; assay: diet induced obesity (DIO) mouse hyperglycemia treatment; format: in vivo; conditions: 20, 40 or 80 mg/kg twice a day up to 28 days
Source text: Diet induced obesity (DIO) mouse hyperglycemia treatment. The effect of a drug to enhance peripheral sensitivity to insulin can be studied in a mouse model in which a state of insulin resistance is attained by feeding the animals a fat-enriched diet (60% of total caloric intake) for at least 6 weeks. This model has been described, e.g., J. N. Thupari et al., Proc. Natl. Acad. Sci. USA, 99(14):9498-9502, 2002, H. Xu et al., J. Clin. Invest., 112:1821-1830, 2003, H. Takahashi et al., J. Biol. Chem., 278(47):46654-46660, 2003.
For these studies, animals of approximately […] of age were divided into groups of 10 animals each and then treated with a vehicle control (no drug) or 17α-ethynylandrost-5-ene-3β,7β,17β-triol by oral gavage. The 17α-ethynylandrost-5-ene-3β,7β,17β-triol was administered at 20 mg/kg, 40 mg/kg or 80 mg/kg twice a day for up to 28 days. At day 14 and day 28 during the dosing period an OGTT was performed.

[2] = test system: passive collagen-induced arthritis; assay: passive collagen induced arthritis (anti-type II collagen antibodies); format: in vivo, DBA/1 mice; conditions: 40 mg/kg/day oral gavage
Source text: The capacity of formula 1 compounds to affect the course of arthritis in a passive collagen induced arthritis model of arthritis was examined essentially as previously described (E. Simelyte et al., Arthritis & Rheumatism, 52(6):1876-1884, 2005; Z. Han et al. Arthritis & Rheumatism 46(3):818-823, 2002; H. Miyahara et al., Clin. Immunol. Immunopathol., 69(1):69-76 1993). In this protocol, passive collagen-induced arthritis was induced in DBA/1 mice by administering anti-type II collagen antibodies, which induced an immune response against joint tissue in the animals. […] The severity of arthritis was assessed using a semiquantitative clinical scoring system. Groups of 8 animals per group were treated with 17α-ethynylandrost-5-ene-3β,7β,17β-triol at 40 mg/kg/day for 14 days or vehicle for 14 days by oral gavage. The vehicle was 30% cyclodextrin-sulfobutylether in water and the drug solution was vehicle with drug at 20 mg/mL.
The animals were examined by measuring ankle thickness and arthritis score (4-point/paw) with a higher score indicating a more severe arthritis. The experiment was terminated after about 14 days, and histology and gene expression measurements were performed. […] A semi-quantitative scoring system was used to access synovial inflammation, extraarticular inflammation, erosion and proteogylcan loss. […]

[3] = test system: osteoblasts and osteocytes; assay: osteoblast and osteocyte apoptosis in vertebral bone of ovariectomized mice (TUNEL); format: in vivo, Swiss Webster mice
Source text: The degree of apoptosis of osteoblasts and osteocytes in murine vertebral bone as a function of estrogen deficiency was examined. Swiss Webster mice (four months old) were ovariectomized. Twenty-eight days later, the animals were sacrificed, vertebrae were isolated, fixed and embedded, and then undecalcified in methacrylate.

[4] = test system: blood glucose in db/db mice; assay: glucose lowering in diabetic db/db mice; format: in vivo, db/db C57BL/Ks mice
Protocol: Glucose lowering and amelioration of insulin resistance. Glucose lowering effects and amelioration of insulin resistance was assessed in the diabetic db/db mouse model of human diabetes and insulin resistance. In these studies, db/db C57BL/Ks mice of approximately 8 to 10 weeks of age were divided into groups of 10 each and then treated with a vehicle control (no drug) or 17α-ethynylandrost-5-ene-3β,7β,17β-triol by oral gavage. The compound was administered twice a day at 20 mg/kg/day (10 mg/kg dose administered twice per day), 40 mg/kg/day (20 mg/kg dose administered twice per day) or 80 mg/kg/day (40 mg/kg dose administered twice per day) for up to 28 days. Blood glucose levels were monitored twice a week during the dosing period, using a minute amount of blood (nick tail bleeds) to measure the concentration of glucose by glucometer strips. At specific times during the dosing period (day 14 and day 28), an oral glucose tolerance test (OGTT) was also performed by administering a standard oral dose of 1 g/kg glucose (approximately 40 mg in a […]) and then the fluctuation of blood glucose levels was monitored quickly thereafter after at 15, 30, 60 and 120 minutes after the glucose dose. […] Blood glucose approached 380 mg/dL in the vehicle control group and was <230 mg/dL after at least 10 days of dosing in the drug treated group.
A treatment protocol similar to that described in example 15 was performed with db/db mice that were younger than the animals described in example 15. The animals (n=8 to 10 per group) were treated with 17α-ethynylandrost-5-ene-3β,7β,17β-triol or vehicle by oral gavage twice per day at 40 mg/kg/day (20 mg/kg dose given twice per day) and 80 mg/kg/day (40 mg/kg dose given twice per day). At the start of dosing, the animals were 6 weeks of age, before the onset of elevated glucose levels or hyperglycemia. Dosing with vehicle or drug was maintained for 32 days to determine the effect of the treatments on the onset and rate of progression of hyperglycemia in the animals. In the control group, the onset of hyperglycemia was observed after 25 days of dosing and it continued to worsen, i.e., blood glucose levels rose from normal to frank hyperglycemia, through the end of the 32 day dosing period.

[5] = test system: 11β-HSD1; assay: expression of 11β-HSD1 in osteoblasts of treated mice; conditions: mouse, in vivo

## C#C[C@]1(O)CC[C@H]2[C@@H]3[C@@H](O)C=C4C[C@@H](O)CC[C@]4(C)[C@H]3CC[C@@]21C [17α-ethynylandrost-5-ene-3β,7β,17β-triol]
[1]
  glucose intolerance (OGTT glycemic excursion) vs vehicle: notably reduced glucose intolerance
[2]; day 7
  maximum clinical score: 5.1
[2]; end of protocol
  clinical score at day 14: 4.1
[3]
  osteoblast and osteocyte apoptosis: reduce apoptosis
[4]; 80 mg/kg b.i.d. for 28 days, 30-min post-oral glucose
  OGTT peak glycemic excursion: < 200 mg/dL
[4]; 6 week old db/db mice, 32 day dosing
  onset of hyperglycemia: did not rise above normal levels; also recorded: completely blocked progression
[4]; 8 to 10 week old db/db mice, oral gavage twice a day
  decrease in hyperglycemic blood glucose levels: approximately 40%
[4]; 8 week old male db/db mice, 40 mg/kg dose group, twice a day
  basal blood glucose: markedly suppressed
[4]; after at least 10 days of dosing
  blood glucose: < 230 mg/dL
[4]; treated db/db animals
  glucose intolerance in OGTT vs vehicle: significant amelioration of glucose intolerance
[5]
  decrease of expression of 11β-HSD1 in osteoblasts: about 50%
